# Laboratory results from patent US10738056B2 (Aduro BioTech, Inc., priority 2017, dated 2020).
# Key:
# [1] = target: Human cGAS amino acids 155-522 (Homo sapiens (Human), UniProt Q8N884); assay: cGAS biochemical activity assay (ATP remaining, Kinase-Glo Max luminescence); conditions: human cGAS 155-522, ATP remaining (Kinase-Glo Max); read-out: cGAS IC50
# [2] = test system: cGAS/STING pathway in THP1 cells; assay: THP1 cell-based cGAS/STING pathway activity assay (IRF-3-linked luciferase reporter); conditions: Homo sapiens, THP-1
# Method in brief: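 THP1 cells carrying an IRF-3-driven luciferase reporter were read across a range of compound concentrations, and IC50 values were derived from these concentration responses; the assay upper limit was 100 μM.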
# Sequence of Human cGAS amino acids 155-522 (Q8N884 157-522): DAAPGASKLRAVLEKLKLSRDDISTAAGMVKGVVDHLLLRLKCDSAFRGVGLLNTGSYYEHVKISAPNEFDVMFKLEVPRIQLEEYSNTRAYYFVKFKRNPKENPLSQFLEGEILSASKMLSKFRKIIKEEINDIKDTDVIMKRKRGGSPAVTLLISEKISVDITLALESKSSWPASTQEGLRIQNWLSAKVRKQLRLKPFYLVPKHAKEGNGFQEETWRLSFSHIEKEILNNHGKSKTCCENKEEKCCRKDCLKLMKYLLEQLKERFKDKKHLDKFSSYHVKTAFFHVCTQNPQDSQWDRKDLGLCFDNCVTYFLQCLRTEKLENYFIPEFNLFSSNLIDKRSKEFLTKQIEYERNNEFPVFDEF
SMILES,IC50 [1] [µM],IC50 [2] [µM]
"Cc1[nH]c2c(-c3ccccc3)c(C(F)(F)F)nn2c(=O)c1-c1nnc(-c2cccc(O)n2)o1 [Compound D1086, 6-(5-(6-hydroxypyridin-2-yl)-1,3,4-oxadiazol-2-yl)-5-methyl-3-phenyl-2-(trifluoromethyl)pyrazolo[1,5-a]pyrimidin-7(4H)-one]",< 20,> 100
"COc1cccc2oc(-c3c(COCC(=O)O)[nH]c4c(-c5ccccc5)c(C(F)(F)F)nn4c3=O)nc12 [Compound C1146, 2-((6-(4-methoxybenzo[d]oxazol-2-yl)-7-oxo-3-phenyl-2-(trifluoromethyl)-4,7-dihydropyrazolo[1,5-a]pyrimidin-5-yl)methoxy)acetic acid]",< 20,> 100
"COc1cccc2oc(-c3c(C(=O)NCCO)[nH]c4c(-c5ccccc5)c(C(F)(F)F)nn4c3=O)nc12 [Compound C1178, N-(2-hydroxyethyl)-6-(4-methoxybenzo[d]oxazol-2-yl)-7-oxo-3-phenyl-2-(trifluoromethyl)-4,7-dihydropyrazolo[1,5-a]pyrimidine-5-carboxamide]",< 20,< 20
"Cc1[nH]c2c(-c3ccccc3)c(C#N)nn2c(=O)c1-c1nc2cnccc2o1 [Compound C1275, 5-methyl-6-(oxazolo[4,5-c]pyridin-2-yl)-7-oxo-3-phenyl-4,7-dihydropyrazolo[1,5-a]pyrimidine-2-carbonitrile]",< 20,> 100
"COCc1[nH]c2c(-c3ccccc3)c(C(F)(F)F)nn2c(=O)c1-c1ncc(C2CCCC2)o1 [Compound C1013, 6-(5-cyclopentyloxazol-2-yl)-5-(methoxymethyl)-3-phenyl-2-(trifluoromethyl)pyrazolo[1,5-a]pyrimidin-7(4H)-one]",> 250,< 20
"COc1cccc2oc(-c3c(Cn4ccnc4)[nH]c4c(-c5ccccc5)c(C(F)(F)F)nn4c3=O)nc12 [Compound C1180, 5-((1H-imidazol-1-yl)methyl)-6-(4-methoxybenzo[d]oxazol-2-yl)-3-phenyl-2-(trifluoromethyl)pyrazolo[1,5-a]pyrimidin-7(4H)-one]",< 20,> 100
"Cc1[nH]c2c(-c3ccccc3)c(C#N)nn2c(=O)c1-c1nc2ccc(N)c(Cl)c2o1 [Compound C1271, 6-(6-amino-7-chlorobenzo[d]oxazol-2-yl)-5-methyl-7-oxo-3-phenyl-4,7-dihydropyrazolo[1,5-a]pyrimidine-2-carbonitrile]",< 20,> 100
"COc1cncc2oc(-c3c(C)[nH]c4c(-c5ccccc5)c(C(F)(F)F)nn4c3=O)nc12 [Compound C1096, 6-(7-methoxyoxazolo[5,4-c]pyridin-2-yl)-5-methyl-3-phenyl-2-(trifluoromethyl)pyrazolo[1,5-a]pyrimidin-7(4H)-one]",< 20,> 100
"Cc1[nH]c2c(-c3ccccc3)c(C#N)nn2c(=O)c1-c1nc2c(N(C)C)cccc2o1 [Compound C1272, 6-(4-(dimethylamino)benzo[d]oxazol-2-yl)-5-methyl-7-oxo-3-phenyl-4,7-dihydropyrazolo[1,5-a]pyrimidine-2-carbonitrile]",< 20,< 20
"COc1cccc2oc(-c3c(COC4COC4)[nH]c4c(-c5ccccc5)c(C(F)(F)F)nn4c3=O)nc12 [Compound C1152, 6-(4-methoxybenzo[d]oxazol-2-yl)-5-((oxetan-3-yloxy)methyl)-3-phenyl-2-(trifluoromethyl)pyrazolo[1,5-a]pyrimidin-7(4H)-one]",< 20,20 to 100
"COc1cccc2oc(-c3c(N4CCCC(C(=O)O)C4)[nH]c4c(-c5ccccc5)c(C(F)(F)F)nn4c3=O)nc12 (centres unmarked) [Compound C1257, 1-(6-(4-methoxybenzo[d]oxazol-2-yl)-7-oxo-3-phenyl-2-(trifluoromethyl)-4,7-dihydropyrazolo[1,5-a]pyrimidin-5-yl)piperidine-3-carboxylic acid]",< 20,> 100
"COc1nn2c(=O)c(-c3nc4c(OC)cccc4o3)c(C)[nH]c2c1-c1ccccc1 [Compound C1064, 2-methoxy-6-(4-methoxybenzo[d]oxazol-2-yl)-5-methyl-3-phenylpyrazolo[1,5-a]pyrimidin-7(4H)-one]",20 to 250,< 20
"CNc1cccc2oc(-c3c(C)[nH]c4c(-c5ccccc5)c(C#N)nn4c3=O)nc12 [Compound C1274, 5-methyl-6-(4-(methylamino)benzo[d]oxazol-2-yl)-7-oxo-3-phenyl-4,7-dihydropyrazolo[1,5-a]pyrimidine-2-carbonitrile]",< 20,> 100
"Cc1[nH]c2c(-c3ccccc3)c(C#N)nn2c(=O)c1-c1nc2ccccc2o1 [Compound C1222, 6-(benzo[d]oxazol-2-yl)-5-methyl-7-oxo-3-phenyl-4,7-dihydropyrazolo[1,5-a]pyrimidine-2-carbonitrile]",< 20,20 to 100
"Cc1[nH]c2c(-c3ccccc3)c(C(F)(F)F)nn2c(=O)c1-c1nnc(C2CCCOC2)o1 (centres unmarked) [Compound D1015, 5-methyl-3-phenyl-6-(5-(tetrahydro-2H-pyran-3-yl)-1,3,4-oxadiazol-2-yl)-2-(trifluoromethyl)pyrazolo[1,5-a]pyrimidin-7(4H)-one]",20 to 250,> 100
"COc1cccc2oc(-c3c(COCC4CNC(=O)O4)[nH]c4c(-c5ccccc5)c(C(F)(F)F)nn4c3=O)nc12 (centres unmarked) [Compound C1177, 5-(((6-(4-methoxybenzo[d]oxazol-2-yl)-7-oxo-3-phenyl-2-(trifluoromethyl)-4,7-dihydropyrazolo[1,5-a]pyrimidin-5-yl)methoxy)methyl)oxazolidin-2-one]",< 20,20 to 100
"Cc1[nH]c2c(-c3ccccc3)c(C(F)(F)F)nn2c(=O)c1-c1nc2c(N(C)C)cccc2o1 [Compound C1078, 6-(4-(dimethylamino)benzo[d]oxazol-2-yl)-5-methyl-3-phenyl-2-(trifluoromethyl)pyrazolo[1,5-a]pyrimidin-7(4H)-one]",< 20,< 20

# More lines, now with the values ahead:
IC50 [1] [µM],IC50 [2] [µM],SMILES
< 20,< 20,"COc1ccc(C(C)=O)c2oc(-c3c(C)[nH]c4c(-c5ccccc5)c(C(F)(F)F)nn4c3=O)nc12 [Compound C1111, 6-(7-acetyl-4-methoxybenzo[d]oxazol-2-yl)-5-methyl-3-phenyl-2-(trifluoromethyl)pyrazolo[1,5-a]pyrimidin-7(4H)-one]"
< 20,20 to 100,"CCOC(=O)c1coc(-c2c(C)[nH]c3c(-c4ccccc4)c(C(F)(F)F)nn3c2=O)n1 [Compound C1101, ethyl 2-(5-methyl-7-oxo-3-phenyl-2-(trifluoromethyl)-4,7-dihydropyrazolo[1,5-a]pyrimidin-6-yl)oxazole-4-carboxylate]"
< 20,20 to 100,"Cc1[nH]c2c(-c3ccccc3)c(C(F)(F)F)nn2c(=O)c1C(=O)Nc1cccc(N)c1 [Compound A1069, N-(3-aminophenyl)-5-methyl-7-oxo-3-phenyl-2-(trifluoromethyl)-4,7-dihydropyrazolo[1,5-a]pyrimidine-6-carboxamide]"
< 20,20 to 100,"COc1cccc(CS(=O)(=O)NC(=O)c2c(C)[nH]c3c(-c4ccccc4)c(C(F)(F)F)nn3c2=O)c1 [Compound A1132, N-((3-methoxybenzyl)sulfonyl)-5-methyl-7-oxo-3-phenyl-2-(trifluoromethyl)-4,7-dihydropyrazolo[1,5-a]pyrimidine-6-carboxamide]"
20 to 250,> 100,"COc1cnccc1NC(=O)c1c(C)[nH]c2c(-c3ccccc3)c(C(F)(F)F)nn2c1=O [Compound A1099, N-(3-methoxypyridin-4-yl)-5-methyl-7-oxo-3-phenyl-2-(trifluoromethyl)-4,7-dihydropyrazolo[1,5-a]pyrimidine-6-carboxamide]"
< 20,20 to 100,"Cc1[nH]c2c(-c3ccccc3)c(C(F)(F)F)nn2c(=O)c1C1=N[C@@H](C(=O)O)[C@H](C)O1 [Compound C1213, (4R,5S)-5-methyl-2-(5-methyl-7-oxo-3-phenyl-2-(trifluoromethyl)-4,7-dihydropyrazolo[1,5-a]pyrimidin-6-yl)-4,5-dihydrooxazole-4-carboxylic acid]"
20 to 250,> 100,"Cc1[nH]c2c(-c3ccccc3)c(C(F)(F)F)nn2c(=O)c1C(=O)NS(C)(=O)=O [Compound A1117, 5-methyl-N-(methylsulfonyl)-7-oxo-3-phenyl-2-(trifluoromethyl)-4,7-dihydropyrazolo[1,5-a]pyrimidine-6-carboxamide]"
< 20,> 100,"Cc1[nH]c2c(-c3ccccc3)c(C(F)(F)F)nn2c(=O)c1C(=O)NS(=O)(=O)c1cccc(C#N)c1 [Compound A1128, N-((3-cyanophenyl)sulfonyl)-5-methyl-7-oxo-3-phenyl-2-(trifluoromethyl)-4,7-dihydropyrazolo[1,5-a]pyrimidine-6-carboxamide]"
< 20,20 to 100,"COCc1nc(-c2c(C)[nH]c3c(-c4ccccc4)c(C(F)(F)F)nn3c2=O)oc1C(C)C [Compound C1153, 6-(5-isopropyl-4-(methoxymethyl)oxazol-2-yl)-5-methyl-3-phenyl-2-(trifluoromethyl)pyrazolo[1,5-a]pyrimidin-7(4H)-one]"
< 20,> 100,"Cc1[nH]c2c(-c3ccccc3)c(C(F)(F)F)nn2c(=O)c1-c1nc2ncccc2o1 [Compound C1030, 5-methyl-6-(oxazolo[4,5-b]pyridin-2-yl)-3-phenyl-2-(trifluoromethyl)pyrazolo[1,5-a]pyrimidin-7(4H)-one]"
< 20,> 100,"Cc1[nH]c2c(-c3ccccc3)c(C(F)(F)F)nn2c(=O)c1C(=O)Nc1ncco1 [Compound A1074, 5-methyl-N-(oxazol-2-yl)-7-oxo-3-phenyl-2-(trifluoromethyl)-4,7-dihydropyrazolo[1,5-a]pyrimidine-6-carboxamide]"
